Results on one molecule are retold here after article PMC8746953, “Caseinolytic Proteins (Clp) in the Genus Klebsiella: Special Focus on ClpK” (Molecules, 2021).

The experiment addresses T1, ClpK (Klebsiella pneumoniae, UniProt E0W6V3).
T1 construct: full-length codon-optimised gene in pColdI (BamH1/SalH1), His-tagged, expressed in E. coli BL21; oligomer not measured
Description: fluorescence emission of mant-nucleotide (excitation […] nm). The note with it: 2 uM ClpK, 10 uM mant-ATP; 10 mM sodium phosphate pH 7.4, 20 °C; labelled compound. It is filed as binding.

T1 sequence (E0W6V3 entry or part of it): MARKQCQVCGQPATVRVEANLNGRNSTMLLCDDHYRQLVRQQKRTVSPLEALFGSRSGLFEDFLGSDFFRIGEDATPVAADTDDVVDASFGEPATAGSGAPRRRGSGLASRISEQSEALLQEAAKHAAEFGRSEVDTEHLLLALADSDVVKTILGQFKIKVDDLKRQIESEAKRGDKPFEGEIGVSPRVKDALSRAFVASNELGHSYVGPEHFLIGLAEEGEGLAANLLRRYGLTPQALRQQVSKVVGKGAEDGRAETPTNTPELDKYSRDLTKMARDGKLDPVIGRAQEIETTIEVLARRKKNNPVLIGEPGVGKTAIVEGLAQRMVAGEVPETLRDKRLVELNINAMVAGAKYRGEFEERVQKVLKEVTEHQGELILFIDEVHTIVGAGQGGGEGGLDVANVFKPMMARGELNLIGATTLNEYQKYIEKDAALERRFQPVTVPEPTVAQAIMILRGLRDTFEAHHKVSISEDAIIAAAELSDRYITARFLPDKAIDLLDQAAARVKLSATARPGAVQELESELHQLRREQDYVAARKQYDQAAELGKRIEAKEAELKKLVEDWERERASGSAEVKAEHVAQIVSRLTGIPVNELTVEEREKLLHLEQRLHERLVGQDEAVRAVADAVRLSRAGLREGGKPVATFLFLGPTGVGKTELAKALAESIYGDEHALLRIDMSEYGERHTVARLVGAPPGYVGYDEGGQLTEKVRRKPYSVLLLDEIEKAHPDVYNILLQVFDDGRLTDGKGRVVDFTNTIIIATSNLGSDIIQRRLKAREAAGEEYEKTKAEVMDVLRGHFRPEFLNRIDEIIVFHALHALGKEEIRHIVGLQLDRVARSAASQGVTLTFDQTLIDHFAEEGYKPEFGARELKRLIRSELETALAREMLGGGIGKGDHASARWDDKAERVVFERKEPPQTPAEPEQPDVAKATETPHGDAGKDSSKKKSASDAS

In the case of `CNc1ccccc1C(=O)O[C@H]1[C@@H](O)[C@H](n2cnc3c(N)ncnc32)O[C@@H]1COP(=O)(O)OP(=O)(O)OP(=O)(O)O` [mant-ATP], the “fluorescence emission of mant-nucleotide (excitation 355 nm)” value is on record as “The spectrum indicates binding of mant-ATP as indicated by an increase in the fluorescence quantum yield”.
